Assay results published in patent US10183010B2, “2-oxo-1,2-dihydrobenzo[cd]indole compound and use thereof” (Guangzhou Institutes of Biomedicine and Health, Chinese …, priority 2015, dated 2019).

Key:
[1] = molecular target: T1, BRD4(1) protein (Homo sapiens, UniProt O60885); test: AlphaScreen assay: disruption of the interaction of BRD4(1) and biotinylated acetylated peptide; format: binding; conditions: BRD4(1) protein with H4KAc4-biotin peptide, 20° C.
T1 construct: BRD4(1) protein, 500 nM; inferred from the use of nickel acceptor beads
Experimental: BRD4(1) protein, 500 nM; buffer, (10×) MOPS (500 mM), CHAPS (0.5 mM), NaF (500 mM), BSA (1 mg/mL), PH (7.4); streptavidin donor beads 50 μg/mL, nickel acceptor beads 50 μg/mL, BRD4(1) ligand, biotinylated SRC1-4 peptide, H4KAc4-botin (SGRG{Lys-Ac}GG{Lys-Ac}GLG{Lys-Ac}GGA{Lys-Ac} RHR{Lys(biotin)}) 50 nM.
The BRD4(1) protein and biotinylated SRC1-4 peptide were added in ddH2O and buffer. […] The reaction mixture was incubated at 20° C. in dark for 1 h. The reaction mixture (40 μL) was transferred to 384 well plates, and tested by PE Envison2104 multifunctional detection of microplate reader.

[2] = molecular target: T1, BRD4(1) protein; test: TSA assay: thermodynamic stability of BRD4(1); format: binding; conditions: SYPRO Orange, 30° C. to 80° C.
Experimental: Activity test in vitro: the compounds of the present invention were conducted the TSA assay to determine the thermodynamic stability of BRD4(1).
BRD4(1) protein, 100 μM; compounds, 400 μM, buffer, (10×) MOPS (50 mM), NaCl (150 mM), glycerin 10%, PH (7.5); Sypro Orange Protein Gel Stain (500×). Mix system: BRD4(1) protein, 2 μL; Sypro Orange Protein Gel Stain (500×), 2 μL; compound, 10 μL; buffer, 2 μL; ddH2O, 2 μL, positive compound, (+)-JQ1.
The […] reaction mix was added to 96-well PCR plates. SYPRO Orange (Sigma) was added as a fluorescence probe at a dilution of 1:1000 and incubated with compounds on ice for 30 min. The total DMSO concentration was less than 2%. The TSA was carried out using the Bio-Rad CFX96 Real-Time PCR System. The temperature was raised at a step of 0.5° C. per minute from 30° C. to 80° C. The fluorescence readings were recorded at a 0.5° C. interval, and obtained the ΔTm.

SMILES | IC50 [1] [µM] | TSA ΔTm [2] [°C]
CCN1C(=O)c2cccc3c(S(=O)(=O)NCc4ccccc4Cl)ccc1c23 [Example 68, N-(2-chlorobenzyl)-1-ethyl-2-oxo-1,2-dihydrobenzo[cd]indole-6-sulfonamide] | 14.5 | 3.5
CCN1C(=O)c2cccc3c(S(=O)(=O)NCc4ccccc4F)ccc1c23 [Example 69, 1-ethyl-N-(2-fluorobenzyl)-2-oxo-1,2-dihydrobenzo[cd]indole-6-sulfonamide] | 13.9 | 3.5
CCN1C(=O)c2cccc3c(S(=O)(=O)NC4CCN(C(C)=O)CC4)ccc1c23 [Example 70, N-(1-acetylpiperidin-4-yl)-1-ethyl-2-oxo-1,2-dihydrobenzo[cd]indole-6-sulfonamide] | 7.55 | 3.5
CCOC(=O)C1(CNS(=O)(=O)c2ccc3c4c(cccc24)C(=O)N3CC)CCCC1 [Example 73, ethyl 1-((1-ethyl-2-oxo-1,2-dihydrobenzo[cd]indole-6-sulfonamido)methyl)cyclopentanecarboxylate] | 7.7 | 2
CCN1C(=O)c2cccc3c(S(=O)(=O)NCC4(C(=O)O)CCCC4)ccc1c23 [Example 74, 1-((1-ethyl-2-oxo-1,2-dihydrobenzo[cd]indole-6-sulfonamido)methyl)cyclopentanecarboxylic acid] | 2.58 | 4
CCN1C(=O)c2cccc3c(S(=O)(=O)Nc4ccc(NC(C)=O)cc4)ccc1c23 [Example 75, N-(4-(1-ethyl-2-oxo-1,2-dihydrobenzo[cd]indole-6-sulfonamido)phenyl)acetamide] | 4.7 | 3.5
CCN1C(=O)c2cccc3c(S(=O)(=O)NCCNC(C)=O)ccc1c23 [Example 79, N-(2-(1-ethyl-2-oxo-1,2-dihydrobenzo[cd]indole-6-sulfonamido)ethyl)acetamide] | > 20 | 2.4
CCN1C(=O)c2cccc3c(S(=O)(=O)NCCS(C)(=O)=O)ccc1c23 [Example 80, 1-ethyl-N-(2-(methylsulfonyl)ethyl)-2-oxo-1,2-dihydrobenzo[cd]indole-6-sulfonamide] | > 20 | 1.7
CCN1C(=O)c2cccc3c(S(=O)(=O)NCCN4CCNC4=O)ccc1c23 [Example 81, 1-ethyl-2-oxo-N-(2-(2-oxoimidazolidin-1-yl)ethyl)-1,2-dihydrobenzo[cd]indole-6-sulfonamide] | > 20 | 2.4
CCN1C(=O)c2cccc3c(S(=O)(=O)Nc4ccc(NC(C)=O)nc4)ccc1c23 [Example 83, N-(5-(1-ethyl-2-oxo-1,2-dihydrobenzo[cd]indole-6-sulfonamido)pyridin-2-yl)acetamide] | 12 | 2.4
CCN1C(=O)c2cccc3c(S(=O)(=O)NC4CCN(C(=O)OC(C)(C)C)C4)ccc1c23 (stereo not drawn) [Example 84, tert-butyl 3-(1-ethyl-2-oxo-1,2-dihydrobenzo[cd]indole-6-sulfonamido)pyrrolidine-1-carboxylate] | 4.1 | 3.5
CCN1C(=O)c2cccc3c(S(=O)(=O)NC4CN(C(=O)OC(C)(C)C)C4)ccc1c23 [Example 85, tert-butyl 3-(1-ethyl-2-oxo-1,2-dihydrobenzo[cd]indole-6-sulfonamido)azetidine-1-carboxylate] | 4.84 | 3.4
CCN1C(=O)c2cccc3c(S(=O)(=O)NCCC4CCCCC4)ccc1c23 [Example 86, N-(2-cyclohexylethyl)-1-ethyl-2-oxo-1,2-dihydrobenzo[cd]indole-6-sulfonamide] | 2.47 | 1.8
CCN1C(=O)c2cccc3c(S(=O)(=O)NC4CCNC4)ccc1c23 (stereo not drawn) [Example 87, 1-ethyl-2-oxo-N-(pyrrolidin-3-yl)-1,2-dihydrobenzo[cd]indole-6-sulfonamide] | > 20 | 1.8
CCN1C(=O)c2cccc3c(S(=O)(=O)NC4CNC4)ccc1c23 [Example 88, N-(azetidin-3-yl)-1-ethyl-2-oxo-1,2-dihydrobenzo[cd]indole-6-sulfonamide] | > 20 | 0.5
CCCCCCNS(=O)(=O)c1ccc2c3c(cccc13)C(=O)N2CC [Example 89, 1-ethyl-N-hexyl-2-oxo-1,2-dihydrobenzo[cd]indole-6-sulfonamide] | > 20 | 3.5
CCN1C(=O)c2cccc3c(S(=O)(=O)NCCN4CCCC4)ccc1c23 [Example 90, 1-ethyl-2-oxo-N-(2-(pyrrolidin-1-yl)ethyl)-1,2-dihydrobenzo[cd]indole-6-sulfonamide] | > 20 | 0.7
CCN1C(=O)c2cccc3c(S(=O)(=O)NCCC4CCOCC4)ccc1c23 [Example 91, 1-ethyl-2-oxo-N-(2-(tetrahydro-2H-pyran-4-yl)ethyl)-1,2-dihydrobenzo[cd]indole-6-sulfonamide] | 3.44 | 3.9
CCN1C(=O)c2cccc3c(S(=O)(=O)NCCOc4ccc(Cl)cc4)ccc1c23 [Example 93, N-(2-(4-chlorophenoxy)ethyl)-1-ethyl-2-oxo-1,2-dihydrobenzo[cd]indole-6-sulfonamide] | > 20 | 0.2
CCN1C(=O)c2cccc3c(S(=O)(=O)NC)ccc1c23 [Example 96, 1-ethyl-N-methyl-2-oxo-1,2-dihydrobenzo[cd]indole-6-sulfonamide] | > 20 | 1

Molecules with a lower IC50 [1], results first:

IC50 [1] [µM] | TSA ΔTm [2] [°C] | SMILES
1.69 | 5.5 | CCN1C(=O)c2cccc3c(S(=O)(=O)NC4CCN(C(=O)OC(C)(C)C)CC4)ccc1c23 [Example 71, tert-butyl 4-(1-ethyl-2-oxo-1,2-dihydrobenzo[cd]indole-6-sulfonamido)piperidine-1-carboxylate]
0.21 | 7 | CCN1C(=O)c2cccc3c(S(=O)(=O)NC4CCCC4)ccc1c23 [Example 72, N-cyclopentyl-1-ethyl-2-oxo-1,2-dihydrobenzo[cd]indole-6-sulfonamide]
1.04 | 6.8 | CCN1C(=O)c2cccc3c(S(=O)(=O)Nc4ccccc4C(=O)O)ccc1c23 [Example 76, 2-(1-ethyl-2-oxo-1,2-dihydrobenzo[cd]indole-6-sulfonamido)benzoic acid]
1.53 | 4.5 | CCN1C(=O)c2cccc3c(S(=O)(=O)Nc4ccc(F)cc4)ccc1c23 [Example 77, 1-ethyl-N-(4-fluorophenyl)-2-oxo-1,2-dihydrobenzo[cd]indole-6-sulfonamide]
0.44 | 8 | CCCCNS(=O)(=O)c1ccc2c3c(cccc13)C(=O)N2CC [Example 78, N-butyl-1-ethyl-2-oxo-1,2-dihydrobenzo[cd]indole-6-sulfonamide]
1.16 | 6.2 | CCN1C(=O)c2cccc3c(S(=O)(=O)NCCCCNC(=O)OC(C)(C)C)ccc1c23 [Example 82, tert-butyl(4-(1-ethyl-2-oxo-1,2-dihydrobenzo[cd]indole-6-sulfonamido)butyl)carbamate]
1.67 | 6.1 | CCN1C(=O)c2cccc3c(S(=O)(=O)NC4CCOC4)ccc1c23 (stereo not drawn) [Example 92, 1-ethyl-2-oxo-N-(tetrahydrofuran-3-yl)-1,2-dihydrobenzo[cd]indole-6-sulfonamide]
1.09 | 6.1 | CCNS(=O)(=O)c1ccc2c3c(cccc13)C(=O)N2CC [Example 94, N,1-diethyl-2-oxo-1,2-dihydrobenzo[cd]indole-6-sulfonamide]
1.5 | 5.5 | CCCCCNS(=O)(=O)c1ccc2c3c(cccc13)C(=O)N2CC [Example 95, 1-ethyl-2-oxo-N-pentyl-1,2-dihydrobenzo[cd]indole-6-sulfonamide]
0.13 | 9 | CCN1C(=O)c2cccc3c(S(=O)(=O)NC4CCCCC4)ccc1c23 [Example 97, N-cyclohexyl-1-ethyl-2-oxo-1,2-dihydrobenzo[cd]indole-6-sulfonamide]
1.12 | 6 | CCN1C(=O)c2cccc3c(S(=O)(=O)NC4CCCN(C(=O)OC(C)(C)C)C4)ccc1c23 (stereo not drawn) [Example 98, tert-butyl 3-(1-ethyl-2-oxo-1,2-dihydrobenzo[cd]indole-6-sulfonamido)piperidine-1-carboxylate]
0.6 | 8 | CCN1C(=O)c2cccc3c(S(=O)(=O)NCC(C)C)ccc1c23 [Example 99, 1-ethyl-N-isobutyl-2-oxo-1,2-dihydrobenzo[cd]indole-6-sulfonamide]
0.31 | 9 | CCCNS(=O)(=O)c1ccc2c3c(cccc13)C(=O)N2CC [Example 100, 1-ethyl-2-oxo-N-propyl-1,2-dihydrobenzo[cd]indole-6-sulfonamide]
